For orientation: DC50 means the concentration at which degradation of the target reaches its halfway point.

This experiment has as its target T1, ER (Homo sapiens, UniProt P03372).
T1 construct: host or cells: T47D and MCF7 human breast cancer cells
T1 sequence (P03372 1-595): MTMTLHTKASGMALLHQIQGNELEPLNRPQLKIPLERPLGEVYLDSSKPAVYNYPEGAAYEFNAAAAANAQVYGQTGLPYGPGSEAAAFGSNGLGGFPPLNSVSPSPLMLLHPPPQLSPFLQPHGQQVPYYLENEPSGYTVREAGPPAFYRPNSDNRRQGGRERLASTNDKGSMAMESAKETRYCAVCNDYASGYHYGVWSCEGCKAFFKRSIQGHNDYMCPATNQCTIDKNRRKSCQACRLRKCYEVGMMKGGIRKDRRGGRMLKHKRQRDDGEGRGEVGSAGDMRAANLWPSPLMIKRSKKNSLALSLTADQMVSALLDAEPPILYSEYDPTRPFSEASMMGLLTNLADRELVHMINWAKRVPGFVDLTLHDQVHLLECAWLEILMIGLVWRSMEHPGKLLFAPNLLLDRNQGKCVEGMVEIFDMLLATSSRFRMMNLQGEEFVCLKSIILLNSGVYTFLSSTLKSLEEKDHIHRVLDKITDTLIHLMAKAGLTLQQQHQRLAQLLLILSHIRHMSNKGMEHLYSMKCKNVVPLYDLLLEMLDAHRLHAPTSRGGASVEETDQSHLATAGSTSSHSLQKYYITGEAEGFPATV
The experiment can be described thus: ER degradation activity, in-cell western blot analysis in T47D cells. The class given is cell-based. As to conditions: 16 hours, Table A does not say which cell line (T47D or MCF7), read-out: Potency (DC50). Summed up:
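T47D cells grown in DMEM with 10% FBS were treated with compounds for 16 hours at 0.5% DMSO final. ER was detected by in-cell western using 680/800 near-infrared secondary antibodies. Residual ER is given as percent of untreated and DMSO-treated wells set to 100%.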
In the case of `O=C1CCC(N2Cc3cc4c(cc3C2=O)CN(CC(=O)N2CCC3(CCN(c5ccc([C@@H]6c7ccc(O)cc7CC[C@@H]6c6ccccc6)cc5)CC3)C2)C4)C(=O)N1` (mixture of isomers) [E 4, rac-3-(6-(2-(8-(4-((1R,2S)-6-hydroxy-2-phenyl-1,2,3,4-tetrahydronaphthalen-1-yl)phenyl)-2,8-diazaspiro[4.5]decan-2-yl)-2-oxoethyl)-1-oxo-3,5,6,7-tetrahydropyrrolo[3,4-f]isoindol-2(1H)-yl)piperidine-2,6-dione], the DC50 lay within 10 to 100 nM.

For `C[C@@H]1Cc2c([nH]c3ccccc23)[C@@H](c2cnc(N3CCC(CN4CCC(N5Cc6cc7c(cc6C5)C(=O)N(C5CCC(=O)NC5=O)C7=O)CC4)CC3)nc2)N1CC(F)F` (stereo partly drawn) [E 261, 6-(1-((1-(5-((1R,3R)-2-(2,2-difluoroethyl)-3-methyl-2,3,4,9-tetrahydro-1H-pyrido[3,4-b]indol-1-yl)pyrimidin-2-yl)piperidin-4-yl)methyl)piperidin-4-yl)-2-(2,6-dioxopiperidin-3-yl)-6,7-dihydropyrrolo[3,4-f]isoindole-1,3(2H,5H)-dione], the DC50 was 10 to 100 nM.

`C[C@@H]1Cc2cc(O)ccc2[C@@H](c2c(F)cc(N3CCC4(CCN(C(=O)CN5Cc6cc7c(cc6C5)C(=O)N(C5CCC(=O)NC5=O)C7)C4)CC3)cc2F)N1CC(C)(F)F` (some centres unmarked) [E 138]: the 50% degradation concentration (DC50) lay in the range of 10 to 100 nM.

For the compound `O=C1CCC(N2C(=O)c3cc4c(cc3C2=O)CN(C(=O)CN2CCC3(CC2)CCN(c2ccc(C(=C(CCCl)c5ccccc5)c5ccc(B(O)O)cc5)cc2)CC3)C4)C(=O)N1` (centres unmarked) [E 198, (4-(4-chloro-1-(4-(9-(2-(6-(2,6-dioxopiperidin-3-yl)-5,7-dioxo-3,5,6,7-tetrahydropyrrolo[3,4-f]isoindol-2(1H)-yl)-2-oxoethyl)-3,9-diazaspiro[5.5]undecan-3-yl)phenyl)-2-phenylbut-1-en-1-yl)phenyl)boronic acid], the DC50 lay in the range of 10 to 100 nM.

Turning to `O=C1CCC(N2C(=O)c3cc4c(cc3C2=O)CN(CCN2CCC3(CC2)CCN(c2ccc([C@@H]5c6ccc(O)cc6CC[C@@H]5c5ccccc5)cc2)CC3)C4)C(=O)N1` (mixture of isomers) [E 268, rac-2-(2,6-dioxopiperidin-3-yl)-6-(2-(9-(4-((1R,2S)-6-hydroxy-2-phenyl-1,2,3,4-tetrahydronaphthalen-1-yl)phenyl)-3,9-diazaspiro[5.5]undecan-3-yl)ethyl)-6,7-dihydropyrrolo[3,4-f]isoindole-1,3(2H,5H)-dione], the DC50 was 10 to 100 nM.

On to `C[C@@H]1Cc2c([nH]c3ccccc23)[C@@H](c2c(F)cc(N3CCC4(CCN(CC(=O)N5Cc6cc7c(cc6C5)C(=O)N(C5CCC(=O)NC5=O)C7)C4)CC3)cc2F)N1CC(F)F` (stereo partly drawn) [E 63, 3-(6-(2-(8-(4-((1R,3R)-2-(2,2-difluoroethyl)-3-methyl-2,3,4,9-tetrahydro-1H-pyrido[3,4-b]indol-1-yl)-3,5-difluorophenyl)-2,8-diazaspiro[4.5]decan-2-yl)acetyl)-1-oxo-3,5,6,7-tetrahydropyrrolo[3,4-f]isoindol-2(1H)-yl)piperidine-2,6-dione], for which the DC50 was less than 10 nM.

As for `O=C1CCC(N2C(=O)c3cc4c(cc3C2=O)CN([C@H]2CC[C@@H](C(=O)N3CC(Nc5ccc([C@H]6c7ccc(O)cc7CC[C@H]6c6ccccc6)cc5)C3)CC2)C4)C(=O)N1` (stereo partly drawn) [E 386, 2-(2,6-dioxopiperidin-3-yl)-6-((1R,4s)-4-(3-((4-((1S,2R)-6-hydroxy-2-phenyl-1,2,3,4-tetrahydronaphthalen-1-yl)phenyl)amino)azetidine-1-carbonyl)cyclohexyl)-6,7-dihydropyrrolo[3,4-f]isoindole-1,3(2H,5H)-dione], the half-maximal degradation concentration (DC50) was more than 100 nM.

In the case of `C[C@@H]1Cc2c([nH]c3ccccc23)[C@@H](c2c(F)cc(N3CC4(CCN(CC(=O)N5Cc6cc7c(cc6C5)C(=O)N(C5CCC(=O)NC5=O)C7)C4)C3)cc2F)N1CC(F)F` (stereo partly drawn) [E 73, 3-(6-(2-(2-(4-((1R,3R)-2-(2,2-difluoroethyl)-3-methyl-2,3,4,9-tetrahydro-1H-pyrido[3,4-b]indol-1-yl)-3,5-difluorophenyl)-2,6-diazaspiro[3.4]octan-6-yl)acetyl)-1-oxo-3,5,6,7-tetrahydropyrrolo[3,4-f]isoindol-2(1H)-yl)piperidine-2,6-dione], the DC50 is less than 10 nM.

(Values after patent US20240190880A1 (THE REGENTS OF THE UNIVERSITY OF MICHIGAN, priority 2021, published 2024).)
